Key:
PRMT5 = PRMT5 (Homo sapiens, UniProt O14744); experiment: PRMT5 IC50 (Table 2; no method described); assay type: biochemical; conditions: read-out: PRMT5_ IC50
Human CARM1 (PRMT4) = target: T1, Human CARM1 (PRMT4) (Homo sapiens, UniProt Q86X55); experiment: CARM1 biochemical assay (3H-SAM Flashplate, peptide substrate); conditions: read-out: CARM1_ IC50
T1 construct: Flag-CARM1-His; made in house; host or cells: HEK 293F cells (BacMam baculovirus, pFastBacMam)
T1 sequence (Q86X55 2-585 isoform Q86X55-1): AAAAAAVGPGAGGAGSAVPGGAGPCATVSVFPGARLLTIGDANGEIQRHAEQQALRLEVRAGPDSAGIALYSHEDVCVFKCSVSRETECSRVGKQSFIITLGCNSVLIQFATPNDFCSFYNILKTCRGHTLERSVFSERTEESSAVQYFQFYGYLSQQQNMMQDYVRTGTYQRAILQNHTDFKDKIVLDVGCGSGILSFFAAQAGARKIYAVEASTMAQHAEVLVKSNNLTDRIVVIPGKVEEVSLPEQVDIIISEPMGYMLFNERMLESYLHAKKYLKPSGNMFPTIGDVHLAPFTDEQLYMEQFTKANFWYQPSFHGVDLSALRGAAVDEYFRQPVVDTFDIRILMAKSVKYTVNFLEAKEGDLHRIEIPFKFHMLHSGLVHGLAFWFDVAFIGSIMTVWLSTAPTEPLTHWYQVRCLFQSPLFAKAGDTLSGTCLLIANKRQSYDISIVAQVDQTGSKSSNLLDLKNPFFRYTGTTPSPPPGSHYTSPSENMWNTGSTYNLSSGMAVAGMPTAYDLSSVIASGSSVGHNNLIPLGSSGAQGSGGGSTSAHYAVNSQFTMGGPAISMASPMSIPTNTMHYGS
Method in brief: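 FLAG/His-tagged human CARM1 (isoform 1, Δ539-561, baculovirus-expressed), 0.25 nM, preincubated 30 min at room temperature with compound (2% DMSO) in 20 mM Bicine pH 7.6, then reacted with 30 nM 3H-SAM and 250 nM biotinylated H3 16-30 peptide (R26 monomethyl). Stopped with 300 uM cold SAM; labelled peptide captured on streptavidin Flashplate; % inhibition versus DMSO and 1 mM SAH controls fitted to a 4- or 3-parameter curve.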

[1] = test system: asymmetric di-methyl PABP1 in RKO cells; experiment: In Cell Western (ICW) for asymmetric di-methyl PABP1 and DNA content in RKO cells; assay type: cell-based; conditions: Homo sapiens, RKO, 48 h
Method in brief: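 RKO cells treated with compound for 48 h at 37 °C, then fixed, methanol-permeabilized and stained for asymmetric di-methyl PABP1 (800 nm) with DRAQ5 DNA stain (700 nm). Signal ratio normalized to DMSO and 20 μM reference-compound controls. IC50 from nine 3-fold dilutions in triplicate.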

Sequence of PRMT5 (O14744 whole entry, species assumed): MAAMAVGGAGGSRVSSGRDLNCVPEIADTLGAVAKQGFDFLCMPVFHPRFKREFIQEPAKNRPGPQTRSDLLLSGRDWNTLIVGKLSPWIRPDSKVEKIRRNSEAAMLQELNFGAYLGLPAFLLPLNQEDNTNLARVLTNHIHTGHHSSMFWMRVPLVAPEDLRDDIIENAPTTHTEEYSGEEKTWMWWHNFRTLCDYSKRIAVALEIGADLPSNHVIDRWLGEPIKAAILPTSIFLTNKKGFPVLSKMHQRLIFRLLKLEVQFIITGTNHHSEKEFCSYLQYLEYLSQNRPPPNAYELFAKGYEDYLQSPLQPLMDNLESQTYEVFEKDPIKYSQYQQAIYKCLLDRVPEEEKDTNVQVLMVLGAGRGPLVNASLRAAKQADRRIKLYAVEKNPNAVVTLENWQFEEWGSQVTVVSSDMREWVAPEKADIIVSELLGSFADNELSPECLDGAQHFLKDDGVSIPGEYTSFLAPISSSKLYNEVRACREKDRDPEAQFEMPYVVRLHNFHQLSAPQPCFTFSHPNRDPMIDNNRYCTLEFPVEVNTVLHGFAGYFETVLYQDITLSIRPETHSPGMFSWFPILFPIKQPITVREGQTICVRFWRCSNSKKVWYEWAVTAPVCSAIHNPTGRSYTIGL
Sequence of PRMT5 (Q9BQA1 whole entry partner, species assumed): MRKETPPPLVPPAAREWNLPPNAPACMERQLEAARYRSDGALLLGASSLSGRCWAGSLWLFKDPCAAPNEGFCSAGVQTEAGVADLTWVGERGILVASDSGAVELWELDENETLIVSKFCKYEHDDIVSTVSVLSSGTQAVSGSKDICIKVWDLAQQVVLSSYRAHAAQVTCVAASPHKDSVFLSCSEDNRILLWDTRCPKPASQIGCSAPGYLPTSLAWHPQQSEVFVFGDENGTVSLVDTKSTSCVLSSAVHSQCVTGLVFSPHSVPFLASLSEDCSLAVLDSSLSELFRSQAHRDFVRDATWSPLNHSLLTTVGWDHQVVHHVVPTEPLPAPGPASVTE

Row | IC50 (PRMT5) [nM] | IC50 (Human CARM1 (PRMT4)) [nM] | IC50 [1] [nM] | Structure (SMILES)
1 | 790 | 13.5 |  | CC(C)n1ncc2c(C(=O)N(C)[C@@H](C)c3ccccc3)cc(-c3cccc(CN(C)CCN)c3)nc21 [Compound 193]
2 | 1480 | 48.1 |  | CNCCN(C)Cc1cccc(-c2cc(C(=O)N(C)Cc3cccc(Cl)c3)c3cnn(C(C)C)c3n2)c1 [Compound 237]
3 | 7420 | 49.7 |  | CC(C)n1ncc2c(C(=O)N(C)Cc3ccc(F)cc3)cc(-c3cccc(CN(C)CCN)c3)nc21 [Compound 240]
4 | 235 | 51.9 |  | CC(C)n1ncc2c(C(=O)N(C)Cc3ccccc3Cl)cc(-c3cccc(CN(C)CCN)c3)nc21 [Compound 242]
5 | 2830 | 53.1 |  | CNCCN(C)Cc1cccc(-c2cc(C(=O)N(C)Cc3cccc(F)c3)c3cnn(C(C)C)c3n2)c1 [Compound 244]
6 | 577 | 54.3 |  | CNCCN(C)Cc1cccc(-c2cc(C(=O)N(C)C(C)c3ccccc3)c3cnn(C(C)C)c3n2)c1 (stereo not drawn) [Compound 246]
7 | 816 | 58.3 |  | CC(C)n1ncc2c(C(=O)N(C)Cc3ccccc3F)cc(-c3cccc(CN(C)CCN)c3)nc21 [Compound 250]
8 | 47300 | 59.1 |  | CC(C)n1ncc2c(C(=O)NCc3cccc(F)c3)cc(-c3cccc(CN(C)CCN)c3)nc21 [Compound 251]
9 | 1790 | 74.9 |  | CC(C)n1ncc2c(C(=O)N(C)Cc3cccc(Cl)c3)cc(-c3cccc(CN(C)CCN)c3)nc21 [Compound 266]
10 | 13100 | 79.9 |  | CC(C)n1ncc2c(C(=O)N3CCc4ccccc4C3)cc(-c3cccc(CNCCN)c3)nc21 [Compound 269]
11 | 8730 | 110 |  | CNCCN(C)Cc1cccc(-c2cc(C(=O)N(C)Cc3ccc(F)cc3)c3cnn(C(C)C)c3n2)c1 [Compound 278]
12 | 17400 | 128 |  | CNCCN(C)Cc1cccc(-c2cc(C(=O)N[C@@H](C)c3ccccc3)c3cnn(Cc4ccccc4)c3n2)c1 [Compound 281]
13 | 29200 | 131 |  | CNCCN(C)Cc1cccc(-c2cc(C(=O)N[C@@H](C)c3ccccc3)c3cnn(Cc4ccccc4F)c3n2)c1 [Compound 283]
14 | 4170 | 153 |  | CC(C)n1ncc2c(C(=O)N(C)Cc3cccc(F)c3)cc(-c3cccc(CN(C)CCN)c3)nc21 [Compound 287]
15 | 13300 | 235 |  | CNCCN(C)Cc1cccc(-c2cc(C(=O)N[C@@H](C)c3ccccc3)c3cnn(-c4ccccn4)c3n2)c1 [Compound 303]
16 | 670 | 239 |  | CNCCN(C)Cc1cccc(-c2cc(C(=O)N(C)Cc3ccccc3F)c3cnn(C(C)C)c3n2)c1 [Compound 304]
17 | 1070 | 272 |  | COc1ccc(Cn2cnc3ccc(-c4cccc(CNCCN)c4)cc32)cc1 [Compound 309]
18 | 127 | 756 |  | NCCNCc1ccc(-c2ccc3ncn(Cc4cccc(C(=O)N5CCCC5)c4)c3c2)cc1 [Compound 323]
19 | 97.3 | 887 |  | NCCNCc1ccc(-c2ccc3cnn(Cc4cccc(C(=O)N5CCCC5)c4)c3c2)cc1 [Compound 324]
20 | 25.3 | 1030 |  | NCCNCc1ccc(-c2ccc3ncn(Cc4cccc(C(=O)NC5CCCc6ccccc65)c4)c3c2)cc1 (stereo not drawn) [Compound 325]
21 | 170 | 1270 |  | NCCNCc1ccc(-c2ccc3cnn(Cc4cccc(C(=O)N5CCCCC5)c4)c3c2)cc1 [Compound 326]
22 | 72.8 | 1600 |  | NCCNCc1ccc(-c2ccc3ncn(Cc4cccc(C(=O)NC5CCCCC5)c4)c3c2)cc1 [Compound 327]
23 | 80.5 | 2190 |  | NCCNCc1ccc(-c2ccc3ncn(Cc4cccc(C(=O)Nc5cccc6c5CCCC6)c4)c3c2)cc1 [Compound 328]
24 | 136 | 2480 |  | CN1CCN(C(=O)c2cccc(Cn3cnc4ccc(-c5ccc(CNCCN)cc5)cc43)c2)CC1 [Compound 329]
25 | 52.4 | 2720 |  | NCCNCc1ccc(-c2ccc3ncn(Cc4cccc(C(=O)Nc5ccccc5)c4)c3c2)cc1 [Compound 330]
26 | 118 | 2810 |  | CN1CCCN(C(=O)c2cccc(Cn3cnc4ccc(-c5ccc(CNCCN)cc5)cc43)c2)CC1 [Compound 331]

Row | IC50 (PRMT5) [nM] | IC50 (Human CARM1 (PRMT4)) [nM] | IC50 [1] [nM] | Structure (SMILES)
27 | 85.9 | 2840 |  | NCCNCc1ccc(-c2ccc3ncn(Cc4cccc(C(=O)NC5CCCC5)c4)c3c2)cc1 [Compound 332]
28 | 94.7 | 3060 |  | CN1CCN(CCNC(=O)c2cccc(Cn3cnc4ccc(-c5ccc(CNCCN)cc5)cc43)c2)CC1 [Compound 333]
29 | 467 | 3130 |  | NCCNCc1ccc(-c2ccc3cnn(Cc4cccc(Oc5ccccc5)c4)c3c2)cc1 [Compound 334]
30 | 73.8 | 3510 |  | CN1CCN(C(=O)c2cccc(Cn3ncc4ccc(-c5ccc(CNCCN)cc5)cc43)c2)CC1 [Compound 335]
31 | 66.5 | 5120 |  | NCCNCc1ccc(-c2ccc3ncn(CCc4cccc(Cl)c4)c3c2)cc1 [Compound 336]
32 | 33.3 | 5350 |  | NCCNCc1ccc(-c2ccc3ncn(Cc4cccc(C(=O)NCc5ccccc5)c4)c3c2)cc1 [Compound 337]
33 | 439 | 5530 |  | CN1CCCC(Cn2cnc3ccc(-c4ccc(CNCCN)cc4)cc32)C1 (stereo not drawn) [Compound 338]
34 | 135 | 5680 |  | COc1ccc(Cn2ncc3ccc(-c4ccc(CNCCN)cc4)cc32)cc1 [Compound 339]
35 | 105 | 5940 |  | CS(=O)(=O)c1ccc(Cn2cnc3ccc(-c4ccc(CNCCN)cc4)cc32)cc1 [Compound 340]
36 | 87.3 | 6080 |  | CN(C)C(=O)c1cccc(Cn2cnc3ccc(-c4ccc(CNCCN)cc4)cc32)c1 [Compound 341]
37 | 110 | 6480 |  | NCCNCc1ccc(-c2ccc3ncn(Cc4cccc(C(=O)NC5CC5)c4)c3c2)cc1 [Compound 342]
38 | 119 | 8890 |  | CC(=O)c1cccc(Cn2ncc3ccc(-c4ccc(CNCCN)cc4)cc32)c1 [Compound 343]
39 | 67.6 | 8960 |  | N#Cc1ccc(Cn2cnc3ccc(-c4ccc(CNCCN)cc4)cc32)cc1 [Compound 344]
40 | 114 | 9390 |  | COCCNC(=O)c1cccc(Cn2cnc3ccc(-c4ccc(CNCCN)cc4)cc32)c1 [Compound 345]
41 | 116 | 10000 |  | CN(C(=O)c1cccc(Cn2cnc3ccc(-c4ccc(CNCCN)cc4)cc32)c1)C1CCCC1 [Compound 346]
42 | 181 | 10000 |  | NCCNCc1ccc(-c2ccc3ncn(Cc4cccc(C(=O)NC5CCOCC5)c4)c3c2)cc1 [Compound 347]
43 | 435 | 10000 |  | NCCNCc1ccc(-c2ccc3cnn(CC4CCNCC4)c3c2)cc1 [Compound 348]
44 | 117 |  |  | NCCNCc1ccc(-c2ccc3cnn(Cc4cccc(C(=O)N5CCOCC5)c4)c3c2)cc1 [Compound 349]
45 | 172 |  |  | NCCNCc1ccc(-c2ccc3cnn(Cc4ccncc4)c3c2)cc1 [Compound 350]
46 | 235 |  |  | NCCNCc1ccc(-c2ccc3cnn(C4CCNCC4)c3c2)cc1 [Compound 351]
47 | 325 |  |  | CC(=O)N1CCC(Cn2cnc3ccc(-c4ccc(CNCCN)cc4)cc32)CC1 [Compound 352]
48 | 351 |  |  | CC(=O)N1CCC(Cn2ncc3ccc(-c4ccc(CNCCN)cc4)cc32)CC1 [Compound 353]
49 | 452 |  |  | CC(C)(C)C(=O)Cn1cnc2cc(-c3ccc(CNCCN)cc3)ccc21 [Compound 354]
50 | 393 |  |  | CN(CCc1ccccn1)C(=O)c1cncc(-c2ccc(CNCCN)cc2)c1 [Compound 357]
51 |  | 97.2 | 10900 | CCN(c1cc(-c2cccc(CN(C)CCNC)c2)cc(C(=O)NCc2c(C)cc(C)[nH]c2=O)c1C)C1CCOCC1 [Compound 387]
52 |  | 149 | ≥ 20000 | Cc1cc(C)c(CNC(=O)c2cc(-c3cc(CNCCN)ccc3C)cc3c2cnn3C(C)C)c(=O)[nH]1 [Compound 388]

Row | Structure (SMILES) | IC50 (PRMT5) [nM] | IC50 (Human CARM1 (PRMT4)) [nM] | IC50 [1] [nM]
53 | Cc1cc(C)c(CN2Cc3ccc(-c4ccc(CNCCN)cc4)cc3C2=O)c(=O)[nH]1 [Compound 390] | 472 | 17500 | 

Source: patent publication US20170280720A1, “ARGININE […] INHIBITORS AND USES THEREOF” (EPIZYME, INC., priority 2014, published 2017)
